Read-outs that look alike come from different tables or passages of the source.
Tests used:
Type in all cases: cell-based, human
[1] = tested on: several loci in HEK293T cells; experiment: Prime editing with pegRNAs and nicking gRNAs (double-nicking, PE3) at several loci, deep sequencing; conditions: for precise editing frequencies (mean): mean across several loci; for precise editing frequencies: range across several loci
Procedure: We compared PEmax and PE for creating small edits at the EMX1, GFP, KRAS, and MYC loci in HEK293T cells.
(§1) We next examined whether vPE produces precise editing by again applying prime editing to convert a GFP transgene to BFP. […] As prime editors can produce indels without the prime edit, with the prime edit, or with the prime edit and pegRNA scaffold incorporation (Chen et al. Cell 184, 5635-5652.e29 (2021)), we further determined how these different indel types were affected.
(§2) Cells were seeded in the maintenance medium without Pen-Strep into 24-well plates at 100,000 cells/well or 48-well plates at 50,000 cells/well. […] Transfections of HEK293T with prime editing vectors were carried out 24 hrs after seeding using 475 ng PE expression vector, 114 ng pegRNA expression vector, and 144 ng nicking gRNA expression vector (for PE3) formulated with 1.47-1.83 μL (equal volume/DNA) Lipofectamine 2000 at a total volume of 58.9-73.3 μL (equal DNA concentration) in OptiMEM I (ThermoFisher) per well for 24-well plates, or half these volumes for 48-well plates. For sequencing assays, genomic DNA was extracted 72 hrs after transfection using QuickExtract (Epicentre). For flow cytometry assays, cells were transferred to 6-well plates 72 hrs after transfection, split 7 days after transfection, and harvested 10 days after transfection in PBS with 5% FBS (ThermoFisher). Repair templates, listed in Supplementary Table 4, were synthesized by IDT.
(§3) The targeted loci were amplified from extracted genomic DNA by PCR using Herculase II polymerase (Agilent). The PCR primers included Illumina sequencing handles as well as replicate-specific barcodes. These PCR products were then tagged with sample-specific barcodes and sequenced on an Illumina MiSeq. Primers, listed in Supplementary Table 5, were synthesized by IDT.
(§4) To measure editing outcomes, the high-throughput sequencing data were analyzed using CRISPResso2 25. Total editing rates were quantified as the fraction of edited reads out of total sequencing reads. Indel rates were quantified as the fraction of reads containing indels out of total sequencing reads. Precise editing rates were quantified as the fraction of reads containing a perfect match to the expected edit out of total sequencing reads. Frequencies of specific indel sizes were quantified as the fraction of reads containing these sizes out of all edited reads. Depletion of specific indel sizes by templated repair was quantified as the fractional reduction in the frequency of that indel size, comparing frequencies for when a template was present versus absent. Mean indel sizes were calculated as the mean of the absolute values of indel sizes weighted by their indel fractions.

[2] = tested on: several loci in HEK293T cells; experiment: Prime editing with pegRNAs without nicking gRNAs (single-nicking, PE2) at several loci, deep sequencing; conditions: for indel frequencies: all loci; for precise editing frequencies (mean): mean across several loci; for precise editing frequencies: range across several loci
Procedure: Considering this broad suppression of all indel types, we also studied whether vPE reduced indel frequency at several loci in HEK293T cells using pegRNAs without nicking gRNAs (single-nicking prime editing, or PE2).
as §2, §3, §4

[3] = tested on: GFP transgene; experiment: Prime editing GFP to BFP conversion with pegRNA and nicking gRNA, flow cytometry
Description: (§5) We tested these engineered variants by applying prime editing with a pegRNA and nicking gRNA to convert a GFP transgene to BFP, similar to the HDR assay.
as §1
Flow cytometry analysis was performed on an LSR Fortessa analyzer and data was collected using FACSDiva (BD Biosciences). Cells were first gated comparing SSC-A and FSC-A, then SSC-H and SSC-W, then FSC-H and FSC-W parameters to select for single cells. To assess editing frequencies, cells were gated for GFP (488 nm laser excitation, 530/30 nm filter detection) and BFP (405 nm laser excitation, 450/50 nm filter detection). To profile cell cycle stage, cells were gated for propidium iodide (561 nm laser excitation, 610/20 nm filter detection) and Alexa Fluor 647 (640 nm laser excitation, 670/30 nm filter detection). Flow cytometry data were analyzed using FlowJo (FlowJo).

[4] = tested on: KRAS locus in HEK293T cells; experiment: Prime editor variant screen with pegRNA and nicking gRNA (PE3), deep sequencing
Procedure: To measure precise editing and indel frequencies for these mutants, we combined them with a pegRNA and nicking gRNA (double-nicking prime editing, or PE3) that produces a small sequence replacement at the KRAS locus in HEK293T cells by prime editing and analyzed alterations using deep sequencing of the amplified locus.
as §5
as §2, with “Repair templates, listed in Supplementary Table 4, were synthesized by IDT.” left out

[5] = vPE versus PE, range across loci

PE: Prime editor: variant of PEmax with the R221K and N394K mutations reverted; SEQ ID NO: 293 (nucleic acid 286)
precise editing frequencies (mean) [1]: 49.1% | precise editing frequencies [1]: 14.7-69.8% | indel frequencies [2]: fairly low indel frequencies | precise editing frequencies (mean) [2]: 82.7% | precise editing frequencies [2]: 72.3-98.2%

vPE: PE prime editor with K848A-H982A in the Cas9 nickase, SEQ ID NO: 294
indels resulting from prime editing ([1]; all loci): nearly eliminated indels | frequencies of each indel type ([1]; indels without prime edit, with prime edit, with pegRNA scaffold incorporation): decreasing the frequencies of each indel type | precise editing frequencies (mean) [1]: 82.5% | precise editing frequencies [1]: 57.7-97.4% | suppression of indel frequency (mean) ([1]; vPE versus PE, mean): 4.7 fold | suppression of indel frequency [1, 5]: 2.0- to 13.0 fold | indel types [2]: reductions in all indel types | indel frequencies [2]: lower indel frequencies | precise editing frequencies (mean) [2]: 90.5% | precise editing frequencies [2]: 84.2-98.4% | suppression of indel frequency (mean) ([2]; vPE versus PE, mean): 1.7 fold | suppression of indel frequency [2, 5]: 1.1- to 2.5 fold | indels and precise editing, GFP to BFP conversion [3]: efficient precise gene conversion with limited indels | indels and precise editing, GFP to BFP conversion ([3]; listed as K848A-H982A): nearly eliminated indels while promoting precise editing | precision, rank among PE variants [4]: most precise variant | precise editing frequency and indel frequency relative to PE ([4]; dual-mutation variants, KRAS locus): increased precise editing frequency and reduced indel frequency
